Reference: patent US10576078B2 (Council of Scientific & Industrial Research, priority 2017, dated 2020)
Where two headings read alike, the source gives them in different places.

Experiments:
Format in all cases: cell-based, Human
K562 cells [1] = experiment: K562 cell viability, CellTiter-Glo luminescent assay; conditions: 48 h; for IC50: Homo sapiens
Method: K562 cells were treated with indicated concentrations of CFZ for 24 h or 48 h, cell viability was then assessed using the CellTiter-Glo luminescent cell viability assay (Promega). Data is mean±SEM of three independent experiments (each in triplicates). IC50 was calculated using Graphpad prism 5 software.
K562 cells were treated as indicated for 48 h and cell viability was determined by CellTiter-Glo luminescent cell viability assay (A) graphical representation of mean±SEM of three independent experiments.
Determination of CFZ's Effect on Cell Viability and Apoptosis • a. CellTitre-Glo assay: Cell viability (in FIG. 1B, FIG. 4 and FIG. 6A) assays was performed using the ATP-based CellTiter-Glo Luminescent cell viability assay (Promega Madison, Wis.) as per the manufacturer's instruction. Briefly, (1.25×10^5) K562 cells/ml (FIG. 1B and FIG. 4) or CD34+ cells from healthy donors (FIG. 6A) were cultured in 48-well plates and were treated as indicated in the respective figures and figure descriptions (vehicle; V=0.1% DMSO). Cells were then incubated with CellTitre-Glo reagent for 15 min. Luminescence was recorded in a GloMax-96 Microplate luminometer (Promega, Madison, Wis.) with an integration time of 1 s per well. • b. Analysis of apoptosis by Annexin V staining and flow cytometry • K562 (FIG. 1C-D) and primary CP-CML cells (FIG. 1H-I) were cultured in 6 well plates (2×10^5 cells/well) and were treated with indicated concentrations of compounds as described in respective figures and their descriptions. Cells were then harvested and washed, and incubated in binding buffer (Annexin V Binding Buffer, BD Pharmingen) with 0.3% Annexin V-FITC and PI for 15 min at room temperature in dark. Apoptosis was measured by FACSCalibur flow cytometer (Becton Dickenson, San Jose, Calif.). • c. TUNEL assay • Pro-apoptotic potential was analysed using a Fluorometric APO-BrdU™ TUNEL Assay Kit (Invitrogen) according to the manufacturer's protocol (FIG. 1F). Cells were treated with Vehicle (0.1% DMSO) or CFZ (5 μM) for 48 h. Cells were then fixed in formaldehyde (4%) for 25 min at 4° C., permeabilized with 0.2% Triton-X100 and washed with PBS. Cells were then incubated in Terminal Deoxynucleotidyl Transferase (TdT) reaction buffer without TdT enzyme for 7 minutes at room temperature and then in TdT buffer with TdT enzyme at 37° C. in dark. After termination of TdT reaction, cells were stained with 5 μg/ml of PI for 15 min in dark followed by washing and analysed with fluorescence microscopy.

K562 cells [2] = experiment: Apoptosis by annexin V/PI staining and flow cytometry in K562 cells; conditions: 48 h
Method: K562 cells were treated with CFZ for 48 h and apoptosis was analyzed by annexin V and propidium iodide (PI) staining followed by flow-cytometry (FACSCalibur, BD biosciences). (C) Mean±SEM of three independent experiments are plotted. (D) Representative dot plot.

K562 cells [3] = experiment: Western blotting of apoptosis proteins in K562 cells
Method: PARP cleavage in K562 cells was assessed by western blotting. One representative of three independent experiments is shown.
The expression of indicated proteins was determined by immunoblotting in K562 cells following indicated treatments. One representative of three independent experiments is shown.
K562 cells were cultured in 6 well plates and treated as indicated in figures or descriptions of FIG. 1E, FIG. 1G and FIG. 2D-E. Cells were then homogenized in lysis buffer containing 50 mM Tris-HCl, pH 7.5, 150 mM NaCl, 1% NP40, 5 mM EDTA, 1 mM DTT, protease and phosphatase inhibitor cocktails (Sigma) and incubated on ice for 30 min followed by 5 cycles of freeze-thaw. Samples were then centrifuged at 14000 rpm at 4° C. for 30 min. Supernatants were then quantified by Bichinchonic acid (Sigma)-based protein estimation. Equal amount of proteins were solubilized in Laemmli buffer, and were resolved by 10%-12% SDS PAGE and transferred onto PVDF membranes (Millipore; Billerica, Mass.). Membranes were blocked in 5% (w/v) non-fat dried milk powder (Sigma) in PBS containing 0.2% Tween 20 (Sigma). The membranes were then sequentially incubated with primary and secondary antibodies in PBS containing 0.2% Tween 20 and 2.5% BSA (with 3 washes in between). Immunoreactivity was detected using a chemiluminescent HRP Substrate (Millipore) in a LAS 4010 Chemi-doc Imager (GE Healthcare, Little Chalfont, UK). Antibodies used: phospho-STAT5, STAT5, cleaved PARP and caspases-3, -8, -9, pCrkL, Bcl2 and Bax antibodies were from Cell Signaling Technology (Boston, Mass.). Mouse monoclonal anti-β-Actin-Peroxidase and horse raddish peroxidase-conjugated secondary antibodies were from Sigma-Aldrich. For immunoblotting all primary antibodies were used in 1:1000 dilutions except β-actin (1:50000). Secondary antibodies were used at 1:10000 dilutions.

[4] = tested on: CD34+ population from CP-CML cells from imatinib-resistant patients; experiment: CD34+ count and apoptosis in CD34+ LSC population from imatinib-resistant CP-CML patients
Method: CD34^+ population from CP-CML cells from imatinib-resistant patients (n=3) were individually purified using a CD34 microbead kit (Miltenyi Biotech) and were treated with 5 μM CFZ or salinomycin for 48 h. Cells were then divided into two groups. One group was assessed by immunostaining for CD34 and the other group was stained with annexin V/PI and the cells were then analyzed by flow-cytometry. Salinomycin was used as positive control. **p<0.01, ***p<0.0001.
CD34^+ population from primary CP-CML cells from imatinib-resistant patients (n=3) were purified using a CD34 microbead kit. Cells were incubated with V or 2.5 μM CFZ for 96 h, stained with PE-conjugated anti-CD34 and FITC-conjugated anti-CD38 antibodies for specific subpopulation and apoptosis was analyzed by APC labeled annexin V and propidium iodide (PI) staining followed by flow-cytometry (FACSCalibur, BD biosciences). *p<0.05, **p<0.01.
The observed purity was 80-90%.
For assessing apoptosis in the CD34^+ population from CML patients, these cells were then treated as indicated in the figures and figure descriptions (FIG. 2A). At the end of treatment, cells from each treatment group were divided in two separate tubes. One group was stained with CD34-PE and the other group was stained with Annexin V FITC/PI antibodies.
For assessing apoptosis in CD34^+ CD38^+ and CD34^+ CD38^− subpopulations from CML patients, CD34^+ cells were isolated as above and were treated with V or 2.5 μM CFZ for 96 h and then stained with PE-conjugated anti-CD34, FITC-conjugated anti-CD38 antibodies for 30 min and then stained with Annexin V-APC/PI at room temperature for 15 minutes and then were gated into CD34^+38^+ and CD34^+38^− populations and apoptosis was assessed in a FACSAria flow cytometer.

IC50 (K562 cells [1]; FIG. 1B, read-out: IC50 (48 h), reduction of viability): 5.85 µM | IC50 (K562 cells [1]; drug alone, FIG. 4A, read-out: IC50, K562 cell viability assay (48 h)): 4.13 µM
Structure (SMILES): CC(C)/N=c1\cc2n(-c3ccc(Cl)cc3)c3ccccc3nc-2cc1Nc1ccc(Cl)cc1 [CFZ, Clofazimine]
combination index (CI) (K562 cells [1]; CFZ with dasatinib, Compusyn): < 1 | combination index (CI) (K562 cells [1]; CFZ with imatinib, Compusyn program): < 1 | apoptosis by Annexin V staining (K562 cells [2]): concentration-dependently induces apoptosis | Bax expression (K562 cells [3]): increased | Bcl-2 expression (K562 cells [3]): decreased | caspase-3 activation (K562 cells [3]): activated | caspase-9 activation (K562 cells [3]): activated | cytochrome C release (K562 cells [3]): induced | apoptosis as determined by PARP cleavage (K562 cells [3]; western blotting): induces apoptosis | apoptosis in committed CD34+38+ progenitor cells ([4]; 2.5 μM CFZ, 96 h, n=3): induced apoptosis | apoptosis in primitive CD34+38− progenitor cells ([4]; 2.5 μM CFZ, 96 h, n=3): induced apoptosis | apoptosis in CD34+ LSC population ([4]; imatinib-resistant CP-CML patients, n=3, 5 μM, 48 h): induced apoptosis | CD34+ population ([4]; imatinib-resistant patients, 5 μM, 48 h): reduces
